The values that follow are results of earlier work, collected in article PMC3074188 (Journal of natural products, 2010).

The series deals with HT-29 cell line.

On to `CC(C)C[C@H](NC(=O)[C@H](Cc1ccccc1)NC(=O)c1cnccn1)B(O)O` [bortezomib], for which the “sensitivity of HT-29 cell line (in words)” value is “sensitive”.
